Reference: publication PMC3200115, “Peptide Inhibition of Topoisomerase IB from Plasmodium falciparum” (Molecular Biology International, 2011)
Bridges are numbered along the chain shown (N, C = ends). Where no end group is shown, it is not given here.

Experiments:
[1] = test system: bacteriophage λ-Int; settings: ref [39], [40]; cited from earlier work
[2] = test system: P. falciparum topoisomerase I (pfTopoI); assay: Plasmid (pBR322) DNA relaxation by pfTopoI; type: biochemical, Plasmodium falciparum; settings: peptide 1.3 to 50 μM; even at concentrations up to 50 μM; 30 min, 37°C
[3] = test system: type IB Topo of Vaccinia virus (vvTopoI); settings: cited from earlier work; for step of catalysis inhibited (vvTopoI): DNA relaxation by vvTopoI; for step of catalysis inhibited (vvTopoI) / inhibition of vvTopoI relaxation activity: ref [39], [40]; for activity against vvTopoI: from rescreening of peptide combinatorial library against vvTopoI, ref [40]
[4] = test system: DNA; assay: Unspecific DNA binding; settings: confirmed in the present study, data not shown

Question: Which “step of catalysis inhibited (λ-Int)” value [1] does the source give for “WYCRCK (disulfide 3-5 (inferred)) [synthetic hexapeptide purchased from GenScript]” here?
Answer: Its value is “specific inhibition of the cleavage and not the ligation step of catalysis”.

Question: And the “effect on relaxation activity of pfTopoI” value [2]?
Answer: Its value is “no effect”.

Question: What about the “step of catalysis inhibited (vvTopoI)” value [3] of the same substance?
Answer: The value was “specific inhibition of the cleavage and not the ligation step of catalysis”.

Question: What about the “activity against vvTopoI” value [3] of the same substance?
Answer: Its value is “high activity”.

Question: And the “inhibition of vvTopoI relaxation activity” value [3]?
Answer: The value was “inhibited the relaxation activity of vvTopoI”.

Question: What about the DNA binding capacity [4] of the same substance?
Answer: The DNA binding capacity was “unspecific DNA binding capacity”.

Question: Which “step of catalysis inhibited (λ-Int)” value [1] does the source give for “KCCRCK (disulfide (positions not given here)) [synthetic hexapeptide purchased from GenScript]” here?
Answer: Its value is “specific inhibition of the cleavage and not the ligation step of catalysis”.

Question: What about the “effect on relaxation activity of pfTopoI” value [2] of the same substance?
Answer: Its value is “no effect”.

Question: And the “step of catalysis inhibited (vvTopoI)” value [3]?
Answer: Its value is “specific inhibition of the cleavage and not the ligation step of catalysis”.

Question: And the “activity against vvTopoI” value [3]?
Answer: Its value is “high activity”.

Question: And the “inhibition of vvTopoI relaxation activity” value [3]?
Answer: The value was “inhibited the relaxation activity of vvTopoI”.

Question: And the DNA binding capacity [4]?
Answer: Its DNA binding capacity is “unspecific DNA binding capacity”.
